Among the data in the RepoRT retention time repository (doi:10.1021/acs.analchem.1c00972) are LC retention time values, retold here.

What all share (details): stereoisomer not certain
A short description of data set [1]: RP, Phenomenex Synergi Polar-RP, 100 × 3 mm, 2.5 µm, 40 °C, 0.4 mL/min, estimated dead time 1.1 min; A: water + 1 mM ammonium fluoride; B: methanol + 1 mM ammonium fluoride; C: acetonitrile; D: 50% isopropanol + 50% acetone; gradient (min/%B/%C/%D) 0/5/0/0 2/5/0/0 8/95/0/0 12/80/15/0 19/25/70/0 19.5/0/25/70 21.5/0/25/70 22.5/0/25/0 23/5/0/0.
The nature of data set [2]: RP, Waters ACQUITY UPLC BEH C18, 100 × 1 mm, 1.7 µm, 50 °C, 0.3 mL/min, estimated dead time 0.17 min; A: water + 10 mM ammonium bicarbonate; B: 10% water + 90% methanol + 10 mM ammonium bicarbonate; gradient (min/%B) 0/0 15/100 21/100 22/0 30/0.
Data set [3] is described as follows: RP, Waters ACQUITY UPLC BEH C18, 100 × 1 mm, 1.7 µm, 50 °C, 0.3 mL/min, estimated dead time 0.17 min; A: water + 0.1% formic acid + 20 mM ammonium formate; B: methanol + 0.1% formic acid + 20 mM ammonium formate; gradient (min/%B) 0/0 15/100 21/100 22/0 30/0.

Consider `Cc1cc(Cl)ccc1OCC(=O)O` [MCPA], for which the LC retention time in data set [1] was 8.16 min.

Regarding `COc1cc(O)c(C(=O)c2ccccc2)cc1S(=O)(=O)O` [Benzophenone-4], the LC retention time in data set [1] is 8.32 min.

As to `OCC1OC(OC2(CCl)OC(CCl)C(O)C2O)C(O)C(O)C1Cl` (configuration not stated) [Sucralose], in data set [1], the LC retention time was 8 min.

In the case of `NS(=O)(=O)c1cc(C(=O)O)c(NCc2ccco2)cc1Cl` [Furosemide], in data set [1], the LC retention time was 8.45 min.

On to `O=C1CN(N=Cc2ccc([N+](=O)[O-])o2)C(=O)N1` [Nitrofurantoin], for which the LC retention time in data set [1] was 8.69 min.

Consider `Cc1cc(Cl)ccc1OC(C)C(=O)O` (configuration not stated) [Mecoprop], for which, in data set [1], the LC retention time is 8.57 min.

In the case of `CC(C(=O)O)c1cccc(C(=O)c2ccccc2)c1` (configuration not stated) [Ketoprofen], in data set [1], the LC retention time is 9.75 min.

`Oc1ccc(Cl)cc1Cl` [24-Dichlorophenol]: the LC retention time in data set [1] is 8.49 min.

For the compound `CCCCC(=O)N(Cc1ccc(-c2ccccc2-c2nn[nH]n2)cc1)C(C(=O)O)C(C)C` (configuration not stated) [Valsartan], in data set [1], the LC retention time was 9.29 min.

On to `Nc1nc2c(ncn2COCCO)c(=O)[nH]1` [Acyclovir], for which the LC retention time in data set [1] is 3.17 min.

Consider `O=S(=O)(O)c1ccc2nc(-c3ccccc3)[nH]c2c1` [Phenylbenzimidazole sulfonic acid], for which the LC retention time in data set [1] is 7.44 min.

`COc1c(C)c2c(c(O)c1CC=C(C)CCC(=O)O)C(=O)OC2` [Mycophenolic acid]: the LC retention time in data set [1] was 10.3 min.

`CC(C)(Oc1ccc(Cl)cc1)C(=O)O` [Clofibric acid]: the LC retention time in data set [1] was 8.57 min.

For `CCCN(CCC)c1c([N+](=O)[O-])cc(S(N)(=O)=O)cc1[N+](=O)[O-]` [Oryzalin], in data set [1], the LC retention time was 11.2 min.

Consider `O=S(=O)(O)c1ccc2ccc(S(=O)(=O)O)cc2c1` [27-Naphthalenedisulfonic acid], for which the LC retention time in data set [1] was 1.65 min.

For the compound `O=c1[nH]c(Cl)c(Cl)cc1Cl` [356-Trichloro-2-pyridinol], the LC retention time in data set [1] was 9.23 min.

`O=C(O)Cc1ccccc1Nc1c(Cl)cccc1Cl` [Diclofenac]: in data set [1], the LC retention time was 10.1 min.

`O=C(NC(=O)c1c(F)cccc1F)Nc1ccc(Oc2ccc(C(F)(F)F)cc2Cl)cc1F` [Flufenoxuron]: the LC retention time in data set [1] was 11.9 min.

With `COCCN(C(=O)CS(=O)(=O)O)c1c(C)cccc1C` [Dimethachlor ESA], in data set [1], the LC retention time was 7.88 min.

As to `N#Cc1nn(-c2c(Cl)cc(C(F)(F)F)cc2Cl)c(N)c1S(=O)C(F)(F)F` (configuration not stated) [Fipronil], the LC retention time in data set [1] is 10.9 min.

As to `CCCC1CC(C(=O)NC(C(C)O)C2OC(SC)C(O)C(O)C2O)N(C)C1` (configuration not stated) [Lincomycin], the LC retention time in data set [1] is 9.98 min.

`O=C(Nc1ccc(Cl)cc1)Nc1ccc(Cl)c(Cl)c1` [Triclocarban]: in data set [1], the LC retention time is 11.3 min.

In the case of `O=c1cc[nH]c(=S)[nH]1` [2-thiouracil], the LC retention time in data set [1] was 2.53 min.

As for `CC(C)(Oc1ccc(CCNC(=O)c2ccc(Cl)cc2)cc1)C(=O)O` [Bezafibrate], in data set [1], the LC retention time is 9.33 min.

As to `O=C(c1ccc(OCCN2CCCCC2)cc1)c1c(-c2ccc(O)cc2)sc2cc(O)ccc12` [Raloxifene], in data set [1], the LC retention time was 16.2 min.

On to `Cc1cccc(C)c1N(Cn1cccn1)C(=O)CS(=O)(=O)O` [Metazachlor ESA], for which the LC retention time in data set [1] is 7.83 min.

On to `CCCCc1nc(Cl)c(CO)n1Cc1ccc(-c2ccccc2-c2nn[nH]n2)cc1` [Losartan], for which the LC retention time in data set [1] is 9.49 min.

`Oc1cc(Cl)c(Cl)c(Cl)c1` [345-trichlorophenol]: the LC retention time in data set [1] is 10.8 min.

Take `Cc1cccc(Nc2ccccc2C(=O)O)c1C` [Mefenamic acid]: the LC retention time in data set [1] is 10.6 min.

For the compound `O=S(=O)(O)CCC(F)(F)C(F)(F)C(F)(F)C(F)(F)C(F)(F)C(F)(F)F` [6-2fluorotelomer sulfonic acid], the LC retention time in data set [1] is 8.97 min.

As to `O=C(O)COc1ccc(Cl)cc1Cl` [24-Dichlorophenoxyacetic acid], the LC retention time in data set [1] was 8.06 min.

Consider `S=c1nc[nH]c2nc[nH]c12` [6-Mercaptopurine], for which, in data set [1], the LC retention time is 3.32 min.

Take `Cc1ccc(-c2cc(C(F)(F)F)nn2-c2ccc(S(N)(=O)=O)cc2)cc1` [Celecoxib]: the LC retention time in data set [1] was 11.1 min.

As to `CC(C)c1c(C(=O)Nc2ccccc2)c(-c2ccccc2)c(-c2ccc(F)cc2)n1CCC(O)CC(O)CC(=O)O` (configuration not stated) [Atorvastatin], in data set [1], the LC retention time is 10.4 min.

In the case of `CCOC(=O)C1=C(C)NC(C)=C(C(=O)OC)C1c1cccc([N+](=O)[O-])c1` (configuration not stated) [Nitrendipin], in data set [1], the LC retention time was 11.2 min.

`CC(O)(CS(=O)(=O)c1ccc(F)cc1)C(=O)Nc1ccc(C#N)c(C(F)(F)F)c1` (configuration not stated) [Bicalutamide]: the LC retention time in data set [1] is 10.7 min.

With `O=c1c(-c2ccc(O)cc2)coc2cc(O)ccc12` [Daidzein], in data set [1], the LC retention time was 9.89 min.

Turning to `COCCN(C(=O)C(=O)O)c1c(C)cccc1C` [Dimethachlor OA], the LC retention time in data set [1] is 7.5 min.

Consider `O=c1[nH]c(=O)c2cn[nH]c2[nH]1` [Oxypurinol], for which the LC retention time in data set [1] was 2.44 min.

Take `Oc1cc(Cl)ccc1Oc1ccc(Cl)cc1Cl` [Triclosan]: in data set [1], the LC retention time is 11.5 min.

Consider `CCOCN(C(=O)CCl)c1c(C)cccc1CC` [Acetochlor], for which the LC retention time is 15.3 min in data set [2] and 15 min in data set [3].

For the compound `Oc1ccc(C(F)(F)F)cc1` [4-Trifluoromethylphenol], the figures for the LC retention time in data set [2] and in data set [3] were 12.6 min and 12.8 min, respectively.

Consider `CCC(C)C(=O)OC1CC(C)C=C2C=CC(C)C(CCC3CC(O)CC(=O)O3)C21` (configuration not stated) [Lovastatin], for which the LC retention time in data set [2] was 17.2 min; in data set [3], 16.8 min.

In the case of `C#CC1(OC(C)=O)CCC2C3CCC4=CC(=O)CCC4C3CCC21C` (configuration not stated) [Norethisterone acetate], the LC retention time in data set [2] was 15.7 min; in data set [3] it was 15.4 min.

As for `CC=C1CC(C)C(C)(O)C(=O)OCC2=CCN3CCC(OC1=O)C23` (configuration not stated) [Senecionine], the LC retention time in data set [2] is 12.5 min; in data set [3] it was 8.65 min.

With `COc1cc(OC)n2nc(S(=O)(=O)Nc3c(Cl)ccc(C)c3Cl)nc2n1` [Metosulam], the figures for the LC retention time in data set [2] and in data set [3] were 10.9 min and 12 min, respectively.

As to `COCCc1ccc(OCC(O)CNC(C)C)cc1` (configuration not stated) [Metoprolol], the figures for the LC retention time in data set [2] and in data set [3] were 12.4 min and 9.58 min, respectively.

`c1ccc2sc(NC3CCCCC3)nc2c1` [N-cyclohexyl-2-benzothiazole-amine]: the LC retention time is 15.8 min in data set [2] and 14.1 min in data set [3].

`COC1CC(OC2CCC3(C)C(CCC4C3CCC3(C)C(C5=CC(=O)OC5)C(OC(C)=O)CC43O)C2)OC(C)C1O` (configuration not stated) [Oleandrin]: the LC retention time is 14.7 min in data set [2] and 14.4 min in data set [3].

For `CCCCC(CC)COP(=O)(Oc1ccccc1)Oc1ccccc1` (configuration not stated) [2-Ethylhexyldiphenyl phosphate], the LC retention time in data set [2] was 18.1 min; in data set [3], 17.7 min.

With `CNC(=O)Nc1ccc(Cl)c(Cl)c1` [1-(3,4-Dichlorphenyl)-3-methyl-Harnstoff], the LC retention time in data set [2] is 13 min; in data set [3], 12.8 min.
